# Values of other authors, collected in patent US20170140533A1, “SYSTEM AND METHOD FOR AUTOMATED DETECTION AND MONITORING OF DYSPLASIA AND ADMINISTRATION OF IMMUNOTHERAPY AND CHEMOTHERAPY” (VISIONGATE, INC., priority 2015, published 2017).
# Tests used:
# [1] = tested on: immune response in SSc patients
# T cells = details: in vitro
smiles,measurement,setting,value
CC#CCC(C)[C@H](O)/C=C/[C@@H]1[C@H]2C/C(=C/CCCC(=O)O)C[C@H]2C[C@H]1O (stereo partly drawn) [Iloprost],IFN gamma production,[1]; SSc patients,No effect
same,T regulatory cells number,[1]; SSc patients,reduces
same,serum IL-2,"[1]; SSc patients, serum",increases
same,T regulatory cells activity,[1]; after immune stimulation,increases
same,persistence of serum IL-2 increase after the last infusion,[1]; after the last infusion,28 days
same,RANKL,[1]; in vivo,increased
same,T cell and TNF alpha production,"[1]; in vivo, SSc patients",reduces
same,RANKL,T cells,increased
same,T cell and TNF alpha production,T cells,reduces
